Experimental data: patent US9409952B2, “Peptide-compound cyclization method” (Chugai Seiyaku Kabushiki Kaisha, priority 2011, dated 2016)
Starred links: 1 amine or outer side, 2 acyl side, 3 side chain; linkers in the order of their positions; H or OH if unused. Positions of bridges follow the written chain, without caps; N, C: chain ends. Non-standard residues stand in square brackets, D forms with d. Residues, ends and D or L forms follow the SMILES beside them. *: point of attachment. NMeF = CN[C@@H](Cc1ccccc1)C(=O)O; NMeGABA = CN(CCCC(=O)[*:2])[*:1]; NMeβAla = CN(CCC(=O)[*:2])[*:1]; NMeL = CN[C@@H](CC(C)C)C(=O)O; NMeV = CN[C@H](C(=O)O)C(C)C; NMeA = CN[C@@H](C)C(=O)O; Piperidide = C1CCN(*)CC1; dNMeA = CN[C@H](C)C(=O)O; Sar = CNCC(=O)O; tBu = CC(C)(C)*

assay: PAMPA (parallel artificial membrane permeability assay); format: in vitro ADME; conditions: PAMPA, pH 6.5
Procedure: 4 μL of a phospholipid-organic solvent solution composed of 10% (w/v) of egg lecithin, 0.5% (w/v) of cholesterol and dodecane (all purchased from Fluka) was added to a Millipore 96-well membrane filter (hydrophobic PVDF (polyvinylidene difluoride), pore size 0.45 microm) (purchased from Millipore Japan) to make an artificial phospholipid membrane.
A DMSO solution containing the compound at a concentration of 10 mM was added in a percentage of 0.5% (v/v) to a 50 mM MOPSO buffer, pH 6.5, containing 5.0% (w/v) of glycocholic acid, and 330 μL of the mixture was added to a 96-well plate made of Teflon (donor plate). The above artificial phospholipid membrane plate was attached onto the donor plate, and 280 μL of a solution obtained by adding DMSO in a percentage of 0.5% (v/v) to a 50 mM MOPSO buffer, pH 6.5, containing 5.0% (w/w) of glycocholic acid was added onto the artificial phospholipid membrane (acceptor plate). These plates were allowed to stand at 37° C. for 18 hours, after which the concentrations of the compound in the solutions in the donor plate and the acceptor plate were measured by LC/MS or LC/UV, and the membrane permeation rate of the compound (Pe) was calculated by the following formulas (1) and (2), where t is the testing time, A is the membrane filter area, VD is the amount of the donor solution, VA is the amount of the acceptor solution, CD,t is the concentration of the compound in the donor solution at the time t, and CA,t is the concentration of the compound in the acceptor solution at the time t.

| SMILES | Papp at 18 hours, 50 µM [×10⁻⁶ cm/s] |
| --- | --- |
| CC[C@H](C)[C@@H]1NC(=O)[C@@H](C)N(C)C(=O)C[C@@H](C(=O)N(C)[C@@H](Cc2ccccc2)C(=O)N[C@@H](C)C(=O)N2CCCCC2)NC(=O)[C@H](Cc2ccccc2)NC(=O)[C@H]([C@@H](C)O)NC(=O)[C@@H]2CCCN2C(=O)CNC(=O)[C@H](CC(C)C)N(C)C(=O)[C@H](Cc2ccccc2)N(C)C(=O)[C@H](CC(C)C)N(C)C(=O)[C@H](CC(C)C)NC1=O [DP-283] ([dNMeA]IL[NMeL][NMeF][NMeL]GPTFD[NMeF]A-Piperidide; lactam N-11) | 1.5 |
| CC[C@H](C)[C@@H]1NC(=O)[C@H](Cc2ccccc2)N(C)C(=O)[C@H]([C@@H](C)O)NC(=O)[C@H](C)NC(=O)C[C@@H](C(=O)N(C)[C@@H](Cc2ccccc2)C(=O)N(C)[C@@H](Cc2ccccc2)C(=O)N[C@@H](C)C(=O)N2CCCCC2)NC(=O)[C@H](CC(C)C)N(C)C(=O)[C@H](CC(C)C)N(C)C(=O)[C@H](Cc2ccccc2)N(C)C(=O)[C@H](CC(C)C)N(C)C(=O)[C@H](C)N(C)C1=O [DP-286] (AT[NMeF]I[NMeA][NMeL][NMeF][NMeL][NMeL]D[NMeF][NMeF]A-Piperidide; lactam N-10) | 0.24 |
| CC(C)C[C@H]1C(=O)N(C)[C@@H](C(C)C)C(=O)N[C@@H](Cc2ccccc2)C(=O)N[C@H](C(=O)N(C)[C@@H](Cc2ccccc2)C(=O)N(C)[C@@H](Cc2ccccc2)C(=O)N[C@@H](C)C(=O)N2CCCCC2)CC(=O)N[C@@H](C)C(=O)N[C@@H](C(C)C)C(=O)N(C)[C@@H](CC(C)C)C(=O)N[C@@H]([C@@H](C)O)C(=O)N(C)[C@@H](Cc2ccccc2)C(=O)NCC(=O)N1C [DP-287] (AV[NMeL]T[NMeF]G[NMeL][NMeV]FD[NMeF][NMeF]A-Piperidide; lactam N-10) | 1.4 |
| CC[C@H](C)[C@@H]1NC(=O)[C@H](Cc2ccccc2)N(C)C(=O)[C@H]([C@@H](C)O)NC(=O)[C@@H](C)NC(=O)C[C@@H](C(=O)N(C)[C@@H](Cc2ccccc2)C(=O)N(C)[C@@H](Cc2ccccc2)C(=O)N[C@@H](C)C(=O)N2CCCCC2)NC(=O)[C@H](CC(C)C)N(C)C(=O)[C@H](CC(C)C)N(C)C(=O)[C@H](Cc2ccccc2)N(C)C(=O)[C@H](CC(C)C)N(C)C(=O)[C@H](C)N(C)C1=O [DP-289] ([dA]T[NMeF]I[NMeA][NMeL][NMeF][NMeL][NMeL]D[NMeF][NMeF]A-Piperidide; lactam N-10) | 0.14 |
| CC[C@H](C)[C@@H]1NC(=O)[C@H](CC(C)C)N(C)C(=O)[C@H](C)N(C)C(=O)[C@H]([C@@H](C)O)NC(=O)[C@H](CC(C)C)N(C)C(=O)[C@H](Cc2ccccc2)N(C)C(=O)[C@@H](C(C)C)NC(=O)C[C@@H](C(=O)N(C)[C@@H](Cc2ccccc2)C(=O)N[C@@H](C)C(=O)N2CCCCC2)NC(=O)[C@H](C(C)C)N(C)C1=O [DP-308] ([dV][NMeF][NMeL]T[NMeA][NMeL]I[NMeV]D[NMeF]A-Piperidide; lactam N-9) | 27 |
| CC(C)C[C@H]1C(=O)N(C)[C@@H](Cc2ccccc2)C(=O)NCC(=O)N(C)[C@@H](Cc2ccccc2)C(=O)N(C)[C@@H](C)C(=O)N[C@@H]([C@@H](C)O)C(=O)N[C@H](C(=O)N(C)[C@@H](Cc2ccccc2)C(=O)N(C)[C@@H](Cc2ccccc2)C(=O)N[C@@H](C)C(=O)N2CCCCC2)CC(=O)N(C)CCC(=O)N[C@@H](C(C)C)C(=O)N1C [DP-312] ([NMeβAla]V[NMeL][NMeF]G[NMeF][NMeA]TD[NMeF][NMeF]A-Piperidide; lactam N-9) | 47 |

same assay, conditions: PAMPA; membrane permeation rate (Pe); 50 mM MOPSO buffer pH 6.5 with 5.0% glycocholic acid, 37° C., 18 hours; read-out: iPAMPA Pe

| SMILES | Papp at 18 hours, 50 µM [×10⁻⁶ cm/s] |
| --- | --- |
| CC(C)C[C@H]1C(=O)N(C)[C@@H](C)C(=O)N[C@@H](COC(C)(C)C)C(=O)N(C)[C@@H](C(C)C)C(=O)N[C@H](C(=O)N2CCCCC2)CC(=O)N(C)[C@@H](C)C(=O)N(C)[C@@H](Cc2ccccc2)C(=O)N[C@@H](C)C(=O)N(C)[C@@H](C)C(=O)N[C@@H](Cc2ccccc2)C(=O)N[C@@H]([C@@H](C)O)C(=O)N(C)[C@@H](C)C(=O)N1C [DP-317] ([NMeA][NMeF]A[NMeA]FT[NMeA][NMeL][NMeA]S(tBu)[NMeV]D-Piperidide; lactam N-12) | 20 |
| CC(C)C[C@@H]1NC(=O)[C@H](Cc2ccccc2)N(C)C(=O)CCN(C)C(=O)C[C@@H](C(=O)N2CCCCC2)NC(=O)[C@H](Cc2ccccc2)N(C)C(=O)[C@H](C)N(C)C(=O)[C@H]([C@@H](C)O)NC(=O)CN(C)C(=O)[C@H](C(C)C)N(C)C(=O)[C@H](C)NC(=O)[C@H](C(C)C)N(C)C(=O)[C@H](CC(C)C)N(C)C1=O [DP-318] ([NMeβAla][NMeF]L[NMeL][NMeV]A[NMeV][Sar]T[NMeA][NMeF]D-Piperidide; lactam N-12) | 26 |
| CC[C@H](C)[C@@H]1NC(=O)[C@H](Cc2ccccc2)N(C)C(=O)[C@H](CC(C)C)N(C)C(=O)[C@H](Cc2ccccc2)NC(=O)[C@H]([C@@H](C)O)NC(=O)[C@H](CC(C)C)N(C)C(=O)[C@H](CC(C)C)NC(=O)CCN(C)C(=O)C[C@@H](C(=O)N2CCCCC2)NC(=O)[C@H](CC(C)C)N(C)C1=O [DP-336] ([NMeβAla]L[NMeL]TF[NMeL][NMeF]I[NMeL]D-Piperidide; lactam N-10) | 35 |
| CC(C)C[C@@H]1NC(=O)[C@@H](C)N(C)C(=O)C[C@@H](C(=O)N(C)[C@@H](Cc2ccccc2)C(=O)N[C@@H](C)C(=O)N2CCCCC2)NC(=O)[C@H](Cc2ccccc2)N(C)C(=O)[C@H](CC(C)C)N(C)C(=O)[C@H](Cc2ccccc2)NC(=O)[C@H]([C@@H](C)O)NC(=O)[C@H](CC(C)C)N(C)C(=O)[C@H](CC(C)C)N(C)C1=O [DP-359] ([dNMeA]L[NMeL][NMeL]TF[NMeL][NMeF]D[NMeF]A-Piperidide; lactam N-9) | 43 |
| CC(C)C[C@H]1C(=O)N(C)[C@@H](Cc2ccccc2)C(=O)N[C@@H]([C@@H](C)O)C(=O)N[C@@H](C)C(=O)N(C)[C@@H](C)C(=O)N[C@H](C(=O)N(C)[C@@H](Cc2ccccc2)C(=O)N[C@@H](C)C(=O)N2CCCCC2)CC(=O)N(C)CCC(=O)N(C)[C@@H](Cc2ccccc2)C(=O)N(C)[C@@H](C(C)C)C(=O)N(C)[C@@H](C)C(=O)N[C@@H](C)C(=O)N1C [DP-360] ([NMeβAla][NMeF][NMeV][NMeA]A[NMeL][NMeF]TA[NMeA]D[NMeF]A-Piperidide; lactam N-11) | 7.3 |
| CC[C@H](C)[C@@H]1NC(=O)[C@H](CC(C)C)N(C)C(=O)[C@H](C)N(C)C(=O)[C@H](C)N(C)C(=O)CCN(C)C(=O)C[C@@H](C(=O)N(C)[C@@H](Cc2ccccc2)C(=O)N[C@@H](C)C(=O)N2CCCCC2)NC(=O)[C@H](Cc2ccccc2)N(C)C(=O)[C@H](C)N(C)C(=O)[C@H]([C@@H](C)O)NC(=O)[C@H](Cc2ccccc2)N(C)C(=O)[C@H](C)N(C)C1=O [DP-362] ([NMeβAla][NMeA][NMeA][NMeL]I[NMeA][NMeF]T[NMeA][NMeF]D[NMeF]A-Piperidide; lactam N-11) | 27 |
| CC[C@H](C)[C@@H]1NC(=O)[C@H](C)N(C)C(=O)[C@H](CC(C)C)N(C)C(=O)CCCN(C)C(=O)C[C@@H](C(=O)N(C)[C@@H](Cc2ccccc2)C(=O)N[C@@H](C)C(=O)N2CCCCC2)NC(=O)[C@H](CC(C)C)N(C)C(=O)[C@H](C)N(C)C(=O)[C@H]([C@@H](C)O)NC(=O)[C@H](Cc2ccccc2)N(C)C(=O)[C@H](Cc2ccccc2)N(C)C(=O)[C@H](CC(C)C)N(C)C1=O [DP-366] ([NMeGABA][NMeL][NMeA]I[NMeL][NMeF][NMeF]T[NMeA][NMeL]D[NMeF]A-Piperidide; lactam N-11) | 14 |
| CC(C)C[C@@H]1NC(=O)[C@H](CC(C)C)N(C)C(=O)CCN(C)C(=O)C[C@@H](C(=O)N(C)[C@@H](Cc2ccccc2)C(=O)N[C@@H](C)C(=O)N2CCCCC2)NC(=O)[C@H](CC(C)C)N(C)C(=O)[C@H](Cc2ccccc2)NC(=O)[C@H](Cc2ccccc2)N(C)C(=O)[C@H](C)NC(=O)[C@H]([C@@H](C)O)NC(=O)[C@H](CC(C)C)N(C)C1=O [DP-369] ([NMeβAla][NMeL]L[NMeL]TA[NMeF]F[NMeL]D[NMeF]A-Piperidide; lactam N-10) | 26 |
| CC[C@H](C)[C@@H]1NC(=O)[C@H](CC(C)C)N(C)C(=O)[C@H](Cc2ccccc2)N(C)C(=O)[C@H]([C@@H](C)O)NC(=O)[C@H](C)N(C)C(=O)CCCN(C)C(=O)C[C@@H](C(=O)N(C)[C@@H](Cc2ccccc2)C(=O)N[C@@H](C)C(=O)N2CCCCC2)NC(=O)[C@H](CC(C)C)N(C)C(=O)[C@H](Cc2ccccc2)N(C)C(=O)[C@H](CC(C)C)N(C)C1=O [DP-373] ([NMeGABA][NMeA]T[NMeF][NMeL]I[NMeL][NMeF][NMeL]D[NMeF]A-Piperidide; lactam N-10) | 9.2 |
| CC[C@H](C)[C@@H]1NC(=O)[C@H](C)N(C)C(=O)[C@H]([C@@H](C)O)NC(=O)[C@H](CC(C)C)N(C)C(=O)[C@H](Cc2ccccc2)NC(=O)[C@H](C(C)C)N(C)C(=O)[C@H](CC(C)C)N(C)C(=O)[C@H](C)N(C)C(=O)C[C@@H](C(=O)N(C)[C@@H](Cc2ccccc2)C(=O)N[C@@H](C)C(=O)N2CCCCC2)NC(=O)[C@H](CC(C)C)N(C)C1=O [DP-376] ([NMeA][NMeL][NMeV]F[NMeL]T[NMeA]I[NMeL]D[NMeF]A-Piperidide; lactam N-10) | 29 |
